Measurements reported in US8268823B2, “Medical use of triazine derivatives” (University of Greenwich, priority 2006, dated 2012).
“And” between values parts separate entries of the source, which are not always exact repeats. Identical values can stand only once. Counter-ions that a name gives are not always drawn. Like-named read-outs stand apart in the source and are kept apart here.

Columns and labels:
sodium channel [1] = assay: veratrine-evoked uptake of [14C]guanidine into rat forebrain synaptosomes ([14C]guanidine flux); assay type: biochemical; details: for Hill (uptake of [14C]guanidine): slope
sodium channel [2] = assay type: binding, rat
[3] = target: T1, DiHydroFolate Reductase (DHFR) (Rattus norvegicus, UniProt Q920D2); assay: inhibition of binding of [3H]methotrexate to rat liver homogenate supernatant; details: for inhibition at 10 µM / inhibition at 99 µM / inhibition at 50 µM: read-out: [3H]methotrexate binding Inhibition (% @ assay conc'n); for inhibition at 99 µM: assay concentration 99 μM; for inhibition at 50 µM: assay concentration 50 μM
T1 construct: from tissue; host or cells: rat liver homogenate supernatant (47,500 x g)
T1 sequence (Q920D2 1-187): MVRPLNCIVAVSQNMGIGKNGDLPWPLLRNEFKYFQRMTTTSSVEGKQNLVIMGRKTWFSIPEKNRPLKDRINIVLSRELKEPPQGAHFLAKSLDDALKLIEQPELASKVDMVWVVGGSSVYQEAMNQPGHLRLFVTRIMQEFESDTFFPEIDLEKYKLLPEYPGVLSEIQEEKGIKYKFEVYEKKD

hERG potassium channel [4] = target: T2, hERG potassium channel (Homo sapiens, UniProt Q12809)
T2 sequence (Q12809 whole entry): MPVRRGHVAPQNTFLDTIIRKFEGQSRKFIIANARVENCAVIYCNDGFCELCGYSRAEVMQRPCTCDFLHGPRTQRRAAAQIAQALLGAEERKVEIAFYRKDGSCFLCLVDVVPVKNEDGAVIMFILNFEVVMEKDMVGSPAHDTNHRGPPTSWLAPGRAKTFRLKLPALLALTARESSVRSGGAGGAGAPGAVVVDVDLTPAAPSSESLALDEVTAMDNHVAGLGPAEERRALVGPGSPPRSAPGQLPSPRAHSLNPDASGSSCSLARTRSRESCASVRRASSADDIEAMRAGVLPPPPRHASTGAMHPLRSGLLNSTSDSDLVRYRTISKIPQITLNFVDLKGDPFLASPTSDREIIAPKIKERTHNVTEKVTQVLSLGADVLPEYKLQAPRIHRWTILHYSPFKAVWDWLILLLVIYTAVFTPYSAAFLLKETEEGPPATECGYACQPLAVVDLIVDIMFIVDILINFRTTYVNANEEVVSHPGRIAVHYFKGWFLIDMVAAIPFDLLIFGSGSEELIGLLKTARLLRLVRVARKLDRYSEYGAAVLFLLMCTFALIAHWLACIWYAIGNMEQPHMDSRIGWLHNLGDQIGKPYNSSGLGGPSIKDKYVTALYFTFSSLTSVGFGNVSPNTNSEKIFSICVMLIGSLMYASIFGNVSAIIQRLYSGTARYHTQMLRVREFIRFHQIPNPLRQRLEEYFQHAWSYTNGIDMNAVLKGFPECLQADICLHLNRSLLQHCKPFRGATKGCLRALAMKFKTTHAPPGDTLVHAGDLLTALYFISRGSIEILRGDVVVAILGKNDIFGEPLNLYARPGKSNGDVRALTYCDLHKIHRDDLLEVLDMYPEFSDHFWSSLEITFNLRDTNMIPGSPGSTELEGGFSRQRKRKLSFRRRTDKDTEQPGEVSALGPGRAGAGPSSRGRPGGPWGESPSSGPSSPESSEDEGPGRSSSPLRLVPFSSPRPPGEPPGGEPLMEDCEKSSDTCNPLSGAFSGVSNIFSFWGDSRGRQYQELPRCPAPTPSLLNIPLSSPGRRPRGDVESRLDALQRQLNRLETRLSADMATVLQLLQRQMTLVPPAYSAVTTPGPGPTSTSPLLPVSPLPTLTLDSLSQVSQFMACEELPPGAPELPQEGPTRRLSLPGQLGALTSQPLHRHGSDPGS

hERG potassium channel [5] = target: T2, hERG potassium channel; assay: in vitro
hERG potassium channel [6] = target: T2, hERG potassium channel; assay: inhibition of binding of [3H]astemizole to cell membranes expressing hERG
[7] = Table 3, rat forebrain synaptosomes, read-out: [14C]guanidine flux Mean (IC50: μM)
[8] = Table 4, tissue prep'n Homogenate, read-out: [3H]BTX-B binding Mean (IC50: μM)
[9] = Table 4, tissue prep'n Synaptosomes, read-out: [3H]BTX-B binding Mean (IC50: μM)
[10] = Table 8, read-out: IC50 (μM) (uptake of [14C]guanidine)

CCn1nc(-c2cc(Cl)ccc2Cl)c(N)nc1=N (as salt: methanesulfonate) [Example 49, 5(3)-Amino-6-(2,5-dichlorophenyl)-2,3(2,5)-dihydro-3(5)-imino-2-ethyl-1,2,4-triazine methanesulfonate]
melting point: 264 to 265 °C

Cn1nc(-c2cc(Cl)cc(Cl)c2)c(N)nc1=N (as salt: methanesulfonate) [Example 53, 5(3)-Amino-6-(3,5-dichlorophenyl)-2,3(2,5)-dihydro-3(5)-imino-2-methyl-1,2,4-triazine methanesulfonate]
melting point: 234 to 236 °C

CCn1nc(-c2cc(Cl)cc(Cl)c2)c(N)nc1=N (as salt: methanesulfonate) [Example 54, 5(3)-Amino-6-(3,5-dichlorophenyl)-2,3(2,5)-dihydro-3(5)-imino-2-ethyl-1,2,4-triazine methanesulfonate]
melting point: 217 to 219 °C

N=c1nc(N)c(-c2cc(Cl)cc(Cl)c2Cl)nn1CCF (as salt: methanesulfonate) [Example 55, 5(3)-Amino-6-(2,3,5-trichlorophenyl)-2,3(2,5)-dihydro-3(5)-imino-2-(2-fluoroethyl)-1,2,4-triazine methanesulfonate]
melting point: 212 to 214 °C

CC(C)n1nc(-c2cccc(Cl)c2Cl)c(N)nc1=N [Example 4, 5(3)-Amino-6-(2,3-dichlorophenyl)-2,3(2,5)-dihydro-3(5)-imino-2-isopropyl-1,2,4-triazine]
IC50 (sodium channel [1]; [7]): 4 µM | IC50 (sodium channel [2]; [8]): 0.6 µM | IC50 (sodium channel [2]; [9]): 1.5 µM | inhibition at 10 µM ([3]; assay concentration 10 μM): -1% | inhibition at 99 µM [3]: 0% | hERG / [14C]guanidine flux selectivity (hERG potassium channel [4]; human): 6.7 | inhibition at 10 µM (hERG potassium channel [5]; hERG % inhibition @ 10 μM): 35% | selectivity ratio (hERG potassium channel [5]; hERG / [14C]guanidine flux selectivity): 6.6 | IC50 (hERG potassium channel [6]): 18.6 µM and 19.4 µM

N=c1nc(N)c(-c2cccc(Cl)c2Cl)nn1CCO [Example 5, 5(3)-Amino-6-(2,3-dichlorophenyl)-2,3(2,5)-dihydro-3(5)-imino-2-(2-hydroxyethyl)-1,2,4-triazine]
IC50 (sodium channel [1]; [7]): 172 µM | IC50 (sodium channel [1]; Table 5, read-out: [14C]guanidine flux IC50): 2.1 µM | IC50 (sodium channel [2]; [8]): 7.2 µM | IC50 (sodium channel [2]; [9]): 25.7 µM | IC50 (sodium channel [2]; Table 5, Synaptosome data, read-out: [3H]BTX-B IC50): 1.7 µM | [3H]methotrexate binding Inhibition (% @ assay conc'n) ([3]; assay concentration 10 μM): −1% | [3H]methotrexate binding Inhibition (% @ assay conc'n) ([3]; assay concentration 101 μM): 1% | IC50 (hERG potassium channel [4]): 7.2 µM | hERG / [14C]guanidine flux selectivity (hERG potassium channel [4]): 3.5 | hERG / [3H]BTX-B selectivity (hERG potassium channel [6]; ratio of extrapolated hERG IC50 to [3H]BTX-B IC50 (synaptosomes)): 4.3

COc1ccc(Cn2nc(-c3cccc(Cl)c3Cl)c(N)nc2=N)cc1 [Example 19, 5(3)-Amino-6-(2,3-dichlorophenyl)-2,3(2,5)-dihydro-3(5)-imino-2-(4-methoxy)phenylmethyl-1,2,4-triazine]
IC50 (sodium channel [1]; [7]): 5 µM | inhibition at 10 µM ([3]; assay concentration 10 μM): -2% | inhibition at 99 µM [3]: -3% | melting point: 212 to 215 °C

Nc1nnc(-c2cccc(F)c2Cl)c(N)n1 [Example 40, 2-chloro-3-fluorophenyl-1,2,4-triazine-3,5-diamine]
IC50 (sodium channel [1]; [7]): 834 µM | IC50 (sodium channel [2]; [9]): 283 µM | IC50 ([3]; rat liver supernatant): 589 µM | melting point: 244 to 246 °C

Nc1nnc(-c2cc(Cl)ccc2Cl)c(N)n1 [Example 41, 3,5-Diamino-6-(2,5-dichlorophenyl)-1,2,4-triazine]
IC50 (sodium channel [1]; [7]): 525 µM | inhibition at 50 µM [3]: 93% | melting point: 228 to 230 °C

Nc1nnc(-c2cc(Cl)cc(Cl)c2)c(N)n1 [Example 42, 3,5-Diamino-6-(3,5-dichlorophenyl)-1,2,4-triazine]
IC50 (sodium channel [1]; [7]): 155 µM | inhibition at 50 µM [3]: 99% | melting point: 223 to 225 °C

CCn1nc(-c2cc(Cl)cc(Cl)c2Cl)c(N)nc1=N [Example 50]
pIC50 (uptake of [14C]guanidine) (sodium channel [1]; Table 8): 5.52 ± 0.03 | IC50 (sodium channel [1]; [10]): 3 µM | Hill (uptake of [14C]guanidine) (sodium channel [1]; Table 8): 0.93 | melting point: 269 to 271 °C

Nc1nnc(-c2ccccc2OC(F)(F)F)c(N)n1 [Example 51, 3,5-Diamino-6-(2-trifluoromethoxyphenyl)-1,2,4-triazine]
pIC50 (uptake of [14C]guanidine) (sodium channel [1]; Table 8): 2.76 ± 0.11 | IC50 (sodium channel [1]; [10]): 1740 µM | Hill (uptake of [14C]guanidine) (sodium channel [1]; Table 8): 1.22 | melting point: 148 to 150 °C
